Literature values, collected in patent US20110004098A1, “ESTER IMAGING AGENTS” (priority 2008, published 2011).

Test system: bladder carcinoma in situ
Details: cystoscopy with Hexvix, as opposed to 58% with white light cystoscopy

Question: With CCCCCCOC(=O)CCC(=O)CN.Cl [Hexvix, n-hexyl 5-aminolevulinate hydrochloride] as the molecule, how does the “sensitivity of detecting bladder carcinoma in situ” value read?
Answer: 97%
